Measurements taken from the NIST ThermoML archive (doi:10.1021/acs.jced.6b00916).
Values joined by “and” are separate entries in the source; they are usually repeats but may differ in a detail not shown here. Equal entries are not always repeated.

Conditions: Liquid, Closed cell (Static) method

FC(F)(F)/C=C/Cl [(E)-1-chloro-3,3,3-trifluoroprop-1-ene]
Conditions | vapor or sublimation pressure
234.15 K | 7.2 kPa
237.15 K | 8.5 kPa
240.15 K | 10 kPa
243.15 K | 11.7 kPa
246.15 K | 13.7 kPa
249.15 K | 16 kPa
252.15 K | 18.6 kPa
255.15 K | 21.6 kPa
258.15 K | 25 kPa
261.15 K | 28.8 kPa
264.15 K | 33.1 kPa
267.15 K | 38 kPa
270.15 K | 43.4 kPa
273.15 K | 49.4 kPa
276.15 K | 56.1 kPa
279.15 K | 63.6 kPa
282.15 K | 71.7 kPa
285.15 K | 80.7 kPa
288.15 K | 90.6 kPa
291.15 K | 101.7 kPa
293.15 K | 108.8 kPa
294.15 K | 113.6 kPa
295.15 K | 117.2 kPa
297.15 K | 126 kPa and 126.6 kPa and 126.4 kPa
299.15 K | 135.1 kPa
300.15 K | 140.5 kPa
301.15 K | 144.9 kPa
303.15 K | 155.3 kPa and 155.9 kPa
305.15 K | 166.3 kPa
306.15 K | 172.6 kPa
307.15 K | 177.8 kPa
309.15 K | 190.1 kPa and 190.6 kPa
311.15 K | 202.9 kPa
312.15 K | 210 kPa
313.15 K | 216.1 kPa
315.15 K | 230.1 kPa and 230.9 kPa
317.15 K | 245 kPa
318.15 K | 253.5 kPa
319.15 K | 260.7 kPa
321.15 K | 277.1 kPa and 277.7 kPa
323.15 K | 296.3 kPa and 294.3 kPa
324.15 K | 303.6 kPa
325.15 K | 312.2 kPa
327.15 K | 331 kPa and 331.3 kPa
329.15 K | 350.5 kPa
330.15 K | 361 kPa
331.15 K | 371 kPa
333.15 K | 392.5 kPa and 392.6 kPa
335.15 K | 413.9 kPa
336.15 K | 426.2 kPa
337.15 K | 437.2 kPa
339.15 K | 461.2 kPa and 461.9 kPa
341.15 K | 486.3 kPa
342.15 K | 499.8 kPa
343.15 K | 513.2 kPa
345.15 K | 540.4 kPa and 540 kPa
347.15 K | 568.5 kPa
348.15 K | 582.7 kPa
349.15 K | 597.9 kPa
351.15 K | 628.7 kPa and 628.1 kPa
353.15 K | 660.4 kPa
354.15 K | 675.8 kPa
357.15 K | 726.3 kPa
360.15 K | 779.6 kPa
363.15 K | 835.8 kPa
366.15 K | 894.8 kPa
369.15 K | 957.1 kPa
372.15 K | 1022.5 kPa
375.15 K | 1091.3 kPa
